The values below come from ChEMBL document CHEMBL1201862, “PubChem BioAssay data set” (2004).

Assay [1] can be described thus: NIH-3T3 fibroblast cytotoxicity, dose response, cytotoxicity control, cell-based, fluorescence, Alamar Blue, secondary assay (AID 2327).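 Also: NIH-3T3 mouse fibroblasts cultured with fluconazole at 8 µg/mL.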 Type of assay: functional.
Assay [2] addresses T1, SUMO-activating enzyme (Homo sapiens, UniProt Q9UBT2). Kind of assay: SUMOylation inhibitor hit validation, confirmation, SUMOylation inhibitor project, biochemical, AlphaScreen (AID 2018). The assay is classed as functional.
Assay [3] in a line: C. albicans growth with fluconazole, confirmation, fluorescence, retest (AID 2467). The assay is classed as functional, cell-based.
The next assay addresses Large T antigen (Simian virus 40, UniProt P03070). The assay is classed as functional, Betapolyomavirus macacae.
In assay [4] the target is T1, SUMO-activating enzyme. Kind of assay: inhibitors of in vitro SUMOylation cascade, primary screen, biochemical, HTRF, uHTS (AID 2006). The assay is classed as protein-complex assay.
Assay [5] concerns the target DNA dC->dU-editing enzyme APOBEC-3A (Homo sapiens, UniProt P31941). Kind of assay: APOBEC3A DNA deaminase inhibitors, dose response, biochemical (AID 504722). Type of assay: functional.
In assay [6] the target is Intestinal-type alkaline phosphatase (Mus musculus, UniProt P24822). Kind of assay: PubChem AID 488785. The assay is classed as functional.
In assay [7] the target is DNA dC->dU-editing enzyme APOBEC-3G (Homo sapiens, UniProt Q9HC16). As to the kind of experiment: Dose Response confirmation of small molecule APOBEC3G DNA Deaminase Inhibitors via a fluorescence-based single-stranded DNA deaminase assay. [Related pubchem assays (depositor defined):AID493012, AID493028]. The assay is classed as functional.
Assay [8] concerns the target T2, Alkaline phosphatase, tissue-nonspecific isozyme (Homo sapiens, UniProt P05186).
T2 sequence (P05186 whole entry): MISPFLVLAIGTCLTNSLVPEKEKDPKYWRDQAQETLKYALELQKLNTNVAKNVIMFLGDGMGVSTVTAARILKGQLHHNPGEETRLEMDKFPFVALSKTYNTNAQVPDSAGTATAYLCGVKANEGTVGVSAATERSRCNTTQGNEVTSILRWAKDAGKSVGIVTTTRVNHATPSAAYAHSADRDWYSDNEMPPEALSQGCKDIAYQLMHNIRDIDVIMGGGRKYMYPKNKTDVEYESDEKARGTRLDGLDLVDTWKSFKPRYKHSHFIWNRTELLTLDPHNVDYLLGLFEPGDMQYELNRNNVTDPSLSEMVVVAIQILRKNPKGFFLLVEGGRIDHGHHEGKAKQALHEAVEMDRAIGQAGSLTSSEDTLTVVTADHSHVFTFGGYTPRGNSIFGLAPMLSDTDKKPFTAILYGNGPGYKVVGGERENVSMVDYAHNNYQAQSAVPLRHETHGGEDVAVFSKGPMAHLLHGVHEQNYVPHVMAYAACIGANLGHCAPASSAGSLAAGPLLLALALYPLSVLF
Kind of assay: TNAP enzyme inhibition by screening hits, dose response, selectivity assay for mouse IAP inhibitor project, biochemical, human TNAP, uHTS hits (AID 488906). The assay is classed as functional.

The target of assay [9] is Intestinal-type alkaline phosphatase (Homo sapiens, UniProt P09923). As to the kind of experiment: inhibition of human intestinal alkaline phosphatase – biochemical, dose response (AID 488876). The assay is classed as functional.
The target of a further assay is Albumin (Bos taurus, UniProt P02769). As to the kind of experiment: Counterscreen for inhibitors of T-cell receptor (TCR)-CD3 interaction: Fluorescence-based biochemical high throughput dose response assay to identify inhibitors of T-cell receptor (TCR)-CD3 interaction using a TAMRA-labeled BSA probe. Type of assay: functional.
The target in assay [10] is T3, Histone-lysine N-methyltransferase NSD2 (Homo sapiens, UniProt O96028).
T3 sequence (O96028 whole entry): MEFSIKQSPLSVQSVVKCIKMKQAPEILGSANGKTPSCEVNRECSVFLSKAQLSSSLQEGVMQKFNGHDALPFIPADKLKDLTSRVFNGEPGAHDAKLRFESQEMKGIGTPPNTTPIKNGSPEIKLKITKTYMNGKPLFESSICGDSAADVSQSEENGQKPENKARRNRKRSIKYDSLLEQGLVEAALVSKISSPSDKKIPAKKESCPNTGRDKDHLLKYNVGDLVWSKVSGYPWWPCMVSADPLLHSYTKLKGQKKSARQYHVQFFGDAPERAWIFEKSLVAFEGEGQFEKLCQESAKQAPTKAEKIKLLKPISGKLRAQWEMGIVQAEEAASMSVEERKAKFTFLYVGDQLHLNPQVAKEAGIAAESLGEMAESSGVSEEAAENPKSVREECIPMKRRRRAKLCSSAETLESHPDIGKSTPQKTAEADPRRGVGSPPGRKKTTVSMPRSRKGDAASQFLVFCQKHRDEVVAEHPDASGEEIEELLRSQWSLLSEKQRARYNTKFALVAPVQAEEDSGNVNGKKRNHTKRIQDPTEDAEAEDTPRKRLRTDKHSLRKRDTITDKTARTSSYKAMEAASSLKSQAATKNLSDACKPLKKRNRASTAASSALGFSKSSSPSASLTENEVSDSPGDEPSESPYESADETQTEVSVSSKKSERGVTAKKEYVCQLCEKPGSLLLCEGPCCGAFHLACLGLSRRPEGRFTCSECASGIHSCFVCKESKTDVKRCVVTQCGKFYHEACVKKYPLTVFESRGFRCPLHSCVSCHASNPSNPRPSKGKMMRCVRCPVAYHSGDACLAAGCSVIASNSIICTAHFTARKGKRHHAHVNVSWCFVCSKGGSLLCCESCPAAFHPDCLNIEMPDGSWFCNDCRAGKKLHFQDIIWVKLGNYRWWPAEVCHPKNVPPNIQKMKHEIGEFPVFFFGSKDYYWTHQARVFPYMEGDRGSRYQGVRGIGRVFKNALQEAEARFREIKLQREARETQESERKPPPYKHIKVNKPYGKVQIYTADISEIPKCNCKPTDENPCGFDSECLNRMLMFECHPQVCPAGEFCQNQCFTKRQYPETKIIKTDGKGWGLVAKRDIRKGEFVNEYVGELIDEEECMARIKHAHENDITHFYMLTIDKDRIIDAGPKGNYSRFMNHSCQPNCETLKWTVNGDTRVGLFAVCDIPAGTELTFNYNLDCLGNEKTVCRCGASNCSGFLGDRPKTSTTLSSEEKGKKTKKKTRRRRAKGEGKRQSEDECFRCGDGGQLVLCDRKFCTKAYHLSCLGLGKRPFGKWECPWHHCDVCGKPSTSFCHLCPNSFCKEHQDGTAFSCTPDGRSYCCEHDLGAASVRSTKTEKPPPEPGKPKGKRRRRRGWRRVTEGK
Type of assay: biochemical.

Assay [11] concerns the target T4, G-protein coupled receptor 55 (Homo sapiens, UniProt Q9Y2T6). Kind of assay: GPR55 antagonists blocking LPI-driven arrestin recruitment, primary screen, imaging, U2OS, beta-arrestin-GFP, LPI agonist (AID 2013).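 Also: antagonist potency measured as reduced agonist-driven arrestin aggregation.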 Type of assay: functional.
The target in assay [12] is T5, Cannabinoid receptor 1 (Homo sapiens, UniProt P21554). As to the kind of experiment: SAR analysis of antagonists of the Cannabinoid Receptor 1 using an Image-Based Assay - Set 2. [Related pubchem assays (depositor defined):AID2013, AID2026]. The assay is classed as functional.
In assay [13] the target is T6, G-protein coupled receptor 35 (Homo sapiens, UniProt Q9HC97). Kind of assay: SAR analysis of Agonists of the GPR35 Receptor using an Image-Based Assay - Set 2. [Related pubchem assays (depositor defined):AID2013, AID2026]. Type of assay: functional.
The target in assay [14] is T7, Cannabinoid receptor 2 (Homo sapiens, UniProt P34972). Kind of assay: SAR analysis of antagonists of the Cannabinoid Receptor 2 using an Image-Based Assay. [Related pubchem assays (depositor defined):AID2013, AID2026]. Type of assay: functional.
The target in assay [15] is T5, Cannabinoid receptor 1. As to the kind of experiment: SAR analysis of agonists of the Cannabinoid Receptor 1 using an Image-Based Assay - Set 2. [Related pubchem assays (depositor defined):AID2013, AID2026]. The assay is classed as functional.
Assay [16] deals with T6, G-protein coupled receptor 35. Kind of assay: SAR analysis of Antagonists of the GPR35 Receptor using an Image-Based Assay - Set 3. [Related pubchem assays (depositor defined):AID2013, AID2026]. Type of assay: functional.
The target of assay [17] is T4, G-protein coupled receptor 55. As to the kind of experiment: GPR55 antagonist potency of analogs, SAR follow-up, imaging, U2OS, beta-arrestin-GFP, LPI agonist, set 2 (AID 2820). Type of assay: functional.
Assay [18] concerns the target T7, Cannabinoid receptor 2. As to the kind of experiment: SAR analysis of agonists of the Cannabinoid Receptor 2 using an Image-Based Assay. [Related pubchem assays (depositor defined):AID2013, AID2026]. Type of assay: functional.
Assay [19] has as its target T8, Protein RecA (Mycobacterium tuberculosis, UniProt P9WHJ3).
T8 sequence (P9WHJ3 whole entry): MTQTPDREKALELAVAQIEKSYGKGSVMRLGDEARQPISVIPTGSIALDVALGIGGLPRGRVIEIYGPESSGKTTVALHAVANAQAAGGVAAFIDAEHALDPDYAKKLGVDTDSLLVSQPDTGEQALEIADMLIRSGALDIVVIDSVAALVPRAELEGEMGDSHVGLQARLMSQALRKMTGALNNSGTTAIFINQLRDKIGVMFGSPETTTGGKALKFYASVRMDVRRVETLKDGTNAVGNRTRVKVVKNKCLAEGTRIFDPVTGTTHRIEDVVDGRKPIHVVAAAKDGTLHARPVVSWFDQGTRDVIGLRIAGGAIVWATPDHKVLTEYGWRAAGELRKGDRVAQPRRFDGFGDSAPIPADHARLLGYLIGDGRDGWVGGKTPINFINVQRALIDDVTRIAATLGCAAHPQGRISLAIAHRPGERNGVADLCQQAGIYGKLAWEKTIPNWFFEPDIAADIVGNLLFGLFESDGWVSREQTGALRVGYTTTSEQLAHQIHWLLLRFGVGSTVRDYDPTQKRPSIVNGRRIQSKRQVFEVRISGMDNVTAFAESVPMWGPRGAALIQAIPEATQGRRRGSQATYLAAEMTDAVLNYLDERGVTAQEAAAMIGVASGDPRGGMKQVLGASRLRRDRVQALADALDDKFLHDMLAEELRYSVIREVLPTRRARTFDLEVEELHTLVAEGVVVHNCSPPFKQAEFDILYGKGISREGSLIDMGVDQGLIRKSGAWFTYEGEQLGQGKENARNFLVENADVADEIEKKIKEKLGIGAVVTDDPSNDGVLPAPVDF
As to the kind of experiment: GFP-RecA MOA-DTT Measured in Biochemical System Using Plate Reader - 2047-05_Inhibitor_Dose_DryPowder_Activity. [Related pubchem assays (depositor defined):AID2223]. Also noted: species or system Mycobacterium tuberculosis H37Rv.

Assay [20] deals with T9, Replicative DNA helicase DnaB (Mycobacterium tuberculosis, UniProt P9WMR3).
T9 sequence (P9WMR3 whole entry): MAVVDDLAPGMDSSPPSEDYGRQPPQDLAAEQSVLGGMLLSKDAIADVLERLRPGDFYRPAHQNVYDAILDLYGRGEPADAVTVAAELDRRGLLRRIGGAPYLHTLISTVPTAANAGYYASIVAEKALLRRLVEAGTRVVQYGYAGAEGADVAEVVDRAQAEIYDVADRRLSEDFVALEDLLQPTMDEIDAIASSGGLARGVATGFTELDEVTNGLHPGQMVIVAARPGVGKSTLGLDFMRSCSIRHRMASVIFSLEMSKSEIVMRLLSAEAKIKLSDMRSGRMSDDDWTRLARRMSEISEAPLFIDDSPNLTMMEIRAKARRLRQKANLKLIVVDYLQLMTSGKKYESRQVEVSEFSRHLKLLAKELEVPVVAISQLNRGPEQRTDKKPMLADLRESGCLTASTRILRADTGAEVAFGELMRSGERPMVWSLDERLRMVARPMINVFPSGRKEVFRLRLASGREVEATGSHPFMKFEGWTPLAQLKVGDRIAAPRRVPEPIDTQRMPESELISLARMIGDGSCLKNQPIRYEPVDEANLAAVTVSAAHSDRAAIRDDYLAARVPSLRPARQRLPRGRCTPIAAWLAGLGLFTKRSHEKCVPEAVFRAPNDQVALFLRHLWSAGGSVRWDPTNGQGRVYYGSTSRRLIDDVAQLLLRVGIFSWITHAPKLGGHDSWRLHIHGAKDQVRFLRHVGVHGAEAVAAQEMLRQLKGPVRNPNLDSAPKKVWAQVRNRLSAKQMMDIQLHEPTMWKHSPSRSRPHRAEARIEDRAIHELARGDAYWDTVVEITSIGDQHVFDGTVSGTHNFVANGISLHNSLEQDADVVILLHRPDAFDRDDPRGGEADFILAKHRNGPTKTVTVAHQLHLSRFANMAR
Kind of assay: DnaB Intein secondary assay Measured in Biochemical System Using Plate Reader - 2047-04_Inhibitor_Dose_DryPowder_Activity. [Related pubchem assays (depositor defined):AID2223].

Assay [21] has as its target T8, Protein RecA. Kind of assay: RecA Intein Measured in Biochemical System Using Plate Reader - 2047-02_Inhibitor_Dose_DryPowder_Activity. [Related pubchem assays (depositor defined):AID2223]. Also noted: species or system Mycobacterium tuberculosis H37Rv.

Each structure is given as a SMILES string. The source made the active and inactive calls. Bounds are passed on as bounds.

T7 sequence (P34972 whole entry): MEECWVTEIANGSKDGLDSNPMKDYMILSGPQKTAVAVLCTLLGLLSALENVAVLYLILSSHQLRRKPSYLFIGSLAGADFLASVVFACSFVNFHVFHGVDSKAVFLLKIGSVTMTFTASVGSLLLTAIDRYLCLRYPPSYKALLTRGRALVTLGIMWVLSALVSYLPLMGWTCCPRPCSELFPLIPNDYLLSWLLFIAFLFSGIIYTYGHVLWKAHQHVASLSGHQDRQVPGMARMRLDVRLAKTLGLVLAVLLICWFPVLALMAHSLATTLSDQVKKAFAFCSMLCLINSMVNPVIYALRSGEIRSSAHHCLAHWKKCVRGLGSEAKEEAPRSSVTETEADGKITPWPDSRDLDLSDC
T5 sequence (P21554 whole entry): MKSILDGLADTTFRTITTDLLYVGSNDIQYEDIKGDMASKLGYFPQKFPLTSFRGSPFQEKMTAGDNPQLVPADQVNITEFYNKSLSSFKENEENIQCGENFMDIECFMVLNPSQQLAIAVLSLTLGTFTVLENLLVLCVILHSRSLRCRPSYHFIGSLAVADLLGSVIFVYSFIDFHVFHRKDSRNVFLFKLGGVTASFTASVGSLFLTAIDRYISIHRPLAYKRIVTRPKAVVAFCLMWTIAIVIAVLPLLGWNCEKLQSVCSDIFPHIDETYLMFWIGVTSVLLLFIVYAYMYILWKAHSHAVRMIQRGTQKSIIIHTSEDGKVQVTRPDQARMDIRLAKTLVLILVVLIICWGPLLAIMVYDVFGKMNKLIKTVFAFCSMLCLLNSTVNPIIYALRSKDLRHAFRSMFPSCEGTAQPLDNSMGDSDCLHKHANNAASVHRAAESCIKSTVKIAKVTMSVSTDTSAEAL
T4 sequence (Q9Y2T6 whole entry): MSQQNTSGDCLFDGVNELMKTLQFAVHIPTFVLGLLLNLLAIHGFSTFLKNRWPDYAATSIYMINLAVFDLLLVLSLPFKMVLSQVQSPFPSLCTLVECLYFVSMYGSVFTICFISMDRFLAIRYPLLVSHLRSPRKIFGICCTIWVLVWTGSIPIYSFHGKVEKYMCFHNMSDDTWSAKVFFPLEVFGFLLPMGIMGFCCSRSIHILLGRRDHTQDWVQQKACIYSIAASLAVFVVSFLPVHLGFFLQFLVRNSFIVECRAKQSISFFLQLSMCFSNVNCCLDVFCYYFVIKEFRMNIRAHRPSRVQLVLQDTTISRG
T6 sequence (Q9HC97 whole entry): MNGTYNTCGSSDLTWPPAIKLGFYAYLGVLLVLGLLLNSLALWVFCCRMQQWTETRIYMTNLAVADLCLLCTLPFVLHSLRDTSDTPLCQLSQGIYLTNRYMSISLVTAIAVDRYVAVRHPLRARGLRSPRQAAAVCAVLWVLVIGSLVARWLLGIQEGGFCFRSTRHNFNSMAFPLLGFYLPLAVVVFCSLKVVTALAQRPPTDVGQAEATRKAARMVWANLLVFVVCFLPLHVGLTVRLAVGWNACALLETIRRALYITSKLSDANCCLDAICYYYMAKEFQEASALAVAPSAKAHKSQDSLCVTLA
T1 sequence (Q9UBE0 whole entry): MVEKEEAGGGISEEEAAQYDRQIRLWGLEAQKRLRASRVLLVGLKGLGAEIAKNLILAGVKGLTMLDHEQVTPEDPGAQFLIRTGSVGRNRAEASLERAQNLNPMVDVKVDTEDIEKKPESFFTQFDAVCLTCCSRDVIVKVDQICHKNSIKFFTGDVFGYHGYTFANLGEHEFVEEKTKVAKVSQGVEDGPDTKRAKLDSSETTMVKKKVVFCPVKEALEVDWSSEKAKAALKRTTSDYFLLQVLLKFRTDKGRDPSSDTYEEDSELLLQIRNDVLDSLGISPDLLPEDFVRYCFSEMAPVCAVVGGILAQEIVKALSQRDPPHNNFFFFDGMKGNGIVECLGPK
T1 sequence (Q9UBT2 whole entry): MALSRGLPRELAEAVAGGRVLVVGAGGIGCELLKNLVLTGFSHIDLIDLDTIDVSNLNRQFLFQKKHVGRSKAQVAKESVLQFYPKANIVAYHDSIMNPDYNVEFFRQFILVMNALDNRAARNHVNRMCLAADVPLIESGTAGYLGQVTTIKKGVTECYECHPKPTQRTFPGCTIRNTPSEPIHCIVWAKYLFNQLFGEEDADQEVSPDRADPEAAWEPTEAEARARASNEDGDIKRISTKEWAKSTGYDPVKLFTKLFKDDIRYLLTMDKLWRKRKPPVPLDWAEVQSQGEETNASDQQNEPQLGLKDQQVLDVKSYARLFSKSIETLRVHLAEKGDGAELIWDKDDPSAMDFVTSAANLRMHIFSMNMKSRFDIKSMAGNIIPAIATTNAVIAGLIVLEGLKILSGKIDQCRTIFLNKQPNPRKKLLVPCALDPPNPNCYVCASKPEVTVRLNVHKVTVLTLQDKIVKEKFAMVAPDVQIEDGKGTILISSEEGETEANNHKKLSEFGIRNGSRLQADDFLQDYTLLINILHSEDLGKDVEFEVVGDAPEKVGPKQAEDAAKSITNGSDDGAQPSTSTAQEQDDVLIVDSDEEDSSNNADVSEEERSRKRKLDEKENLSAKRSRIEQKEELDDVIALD
Chain of Intestinal-type alkaline phosphatase (Homo sapiens, UniProt P09923) (P09923 whole entry): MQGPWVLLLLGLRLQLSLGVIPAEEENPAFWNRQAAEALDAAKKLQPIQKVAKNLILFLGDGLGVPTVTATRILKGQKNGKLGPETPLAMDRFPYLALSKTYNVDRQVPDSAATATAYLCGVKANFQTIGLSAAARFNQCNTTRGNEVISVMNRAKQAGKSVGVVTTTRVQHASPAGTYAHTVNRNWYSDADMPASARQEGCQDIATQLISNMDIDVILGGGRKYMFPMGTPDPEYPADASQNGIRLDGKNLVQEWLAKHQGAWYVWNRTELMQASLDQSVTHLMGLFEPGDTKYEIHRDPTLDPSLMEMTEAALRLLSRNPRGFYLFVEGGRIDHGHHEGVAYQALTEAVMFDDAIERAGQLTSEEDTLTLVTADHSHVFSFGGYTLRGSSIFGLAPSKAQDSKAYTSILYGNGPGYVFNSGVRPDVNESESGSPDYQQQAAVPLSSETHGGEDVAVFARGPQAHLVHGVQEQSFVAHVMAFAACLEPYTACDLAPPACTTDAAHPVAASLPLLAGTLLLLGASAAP
Chain of Large T antigen (P03070 whole entry): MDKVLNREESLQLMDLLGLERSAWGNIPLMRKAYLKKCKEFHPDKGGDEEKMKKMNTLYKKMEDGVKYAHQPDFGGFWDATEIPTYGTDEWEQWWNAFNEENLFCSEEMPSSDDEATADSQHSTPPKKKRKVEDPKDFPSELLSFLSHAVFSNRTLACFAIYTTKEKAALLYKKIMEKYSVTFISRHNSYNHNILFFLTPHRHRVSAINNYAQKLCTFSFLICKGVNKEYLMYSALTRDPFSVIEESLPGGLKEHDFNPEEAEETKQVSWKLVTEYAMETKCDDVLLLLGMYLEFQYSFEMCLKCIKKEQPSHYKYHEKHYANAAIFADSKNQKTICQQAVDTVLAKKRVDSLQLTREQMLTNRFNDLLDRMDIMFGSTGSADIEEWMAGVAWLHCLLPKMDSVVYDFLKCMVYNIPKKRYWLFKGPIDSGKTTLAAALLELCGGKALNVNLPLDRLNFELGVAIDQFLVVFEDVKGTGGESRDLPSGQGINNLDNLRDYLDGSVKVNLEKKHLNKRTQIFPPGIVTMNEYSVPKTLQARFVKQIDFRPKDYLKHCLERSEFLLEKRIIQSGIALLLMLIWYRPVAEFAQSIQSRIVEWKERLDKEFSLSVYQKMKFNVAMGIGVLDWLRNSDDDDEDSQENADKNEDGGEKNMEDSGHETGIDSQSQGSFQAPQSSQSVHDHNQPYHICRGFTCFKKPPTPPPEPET
Chain of DNA dC->dU-editing enzyme APOBEC-3G (Q9HC16 whole entry): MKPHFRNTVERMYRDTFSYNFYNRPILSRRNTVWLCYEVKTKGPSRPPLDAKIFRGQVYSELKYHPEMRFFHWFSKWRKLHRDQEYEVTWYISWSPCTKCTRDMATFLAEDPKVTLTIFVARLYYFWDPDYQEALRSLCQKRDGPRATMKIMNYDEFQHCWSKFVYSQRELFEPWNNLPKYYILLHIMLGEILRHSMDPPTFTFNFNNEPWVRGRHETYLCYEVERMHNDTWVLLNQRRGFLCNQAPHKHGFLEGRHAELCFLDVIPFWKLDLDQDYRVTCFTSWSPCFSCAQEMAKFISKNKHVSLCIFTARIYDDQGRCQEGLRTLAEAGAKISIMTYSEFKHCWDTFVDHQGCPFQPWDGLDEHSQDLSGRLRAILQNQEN
Chain of Albumin (P02769 whole entry): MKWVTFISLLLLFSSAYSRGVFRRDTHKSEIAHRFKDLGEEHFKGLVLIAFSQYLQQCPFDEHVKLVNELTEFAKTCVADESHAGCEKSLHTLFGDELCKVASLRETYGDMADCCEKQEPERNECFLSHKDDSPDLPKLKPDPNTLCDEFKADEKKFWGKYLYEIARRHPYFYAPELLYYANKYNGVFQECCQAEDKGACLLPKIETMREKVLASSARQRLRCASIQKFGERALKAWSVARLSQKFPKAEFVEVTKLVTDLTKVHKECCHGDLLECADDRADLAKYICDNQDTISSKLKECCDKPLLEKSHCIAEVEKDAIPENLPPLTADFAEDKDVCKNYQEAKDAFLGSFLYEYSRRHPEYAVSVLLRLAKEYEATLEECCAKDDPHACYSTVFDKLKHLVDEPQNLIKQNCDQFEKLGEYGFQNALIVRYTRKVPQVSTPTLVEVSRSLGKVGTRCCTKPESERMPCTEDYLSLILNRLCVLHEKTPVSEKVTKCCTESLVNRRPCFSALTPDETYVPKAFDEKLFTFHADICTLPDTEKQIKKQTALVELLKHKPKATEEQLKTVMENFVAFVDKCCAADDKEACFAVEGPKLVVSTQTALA
Chain of DNA dC->dU-editing enzyme APOBEC-3A (P31941 whole entry): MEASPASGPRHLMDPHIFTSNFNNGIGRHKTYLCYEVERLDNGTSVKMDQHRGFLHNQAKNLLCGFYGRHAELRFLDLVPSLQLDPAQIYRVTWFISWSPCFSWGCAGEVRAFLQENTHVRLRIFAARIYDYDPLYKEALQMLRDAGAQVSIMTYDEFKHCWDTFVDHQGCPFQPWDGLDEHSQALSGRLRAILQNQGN

Consider `N#C/C(=C\c1ccc(O)c(O)c1)C(=O)Nc1cccc2ncccc12`, for which the EC50 in [1] was > 150 µM (inactive); in [3], > 38 µM (not active). Besides, the IC50 at SUMO-activating enzyme [2] was 1.27 µM (active); on Large T antigen, 27.8 µM (active); at SUMO-activating enzyme [4], 21.4 µM (active); in [5], > 100 µM (inactive); in assay [6], 14.3 µM (active); in [7] it was 3.81 µM (active). In addition, the IC50 in [8] is 34.6 µM (active); in assay [9], 12.5 µM (active); on Albumin, > 94 µM (inactive). Further, the AC50 in [10] was 3.18 µM (active).

For the molecule `COC(=O)C1=C(N)c2c(F)cccc2C1(C#N)c1ccc(F)cc1` (stereo not drawn), the IC50 was 1.26 µM (active) in assay [11]; 30.7 µM (inactive) on Cannabinoid receptor 1 [12]; > 32 µM (inactive) on Cannabinoid receptor 2 [14]; > 32 µM (inactive) in assay [16]; 1.14 µM (active) in assay [17]. The EC50 (in [13]; at Cannabinoid receptor 1 [15]; on Cannabinoid receptor 2 [18]) was > 32 µM (inactive) throughout.

With `Cc1oc2c(c1C(=O)NCc1ccccn1)C(=O)c1ccccc1C2=O`, the AC50 on Protein RecA [19] is 9.92 µM (active); in assay [20], 1.07 µM (active); on Protein RecA [21] it was 0.074 µM (active).
